Patent US5958966A, “Treatment of aberrant cellular states with biomodulators” (University of New Mexico, priority 1995, dated 1999)
“Also recorded” adds a separate entry of the source.

What was measured:
[1] = tested on: B16 melanoma cells; experiment: effect of swainsonine on cytotoxic T-lymphocytes (51Cr release); assay type: in vivo, mouse
Method: The cytotoxicity assay used two targets: YAC-1, for natural killer cell targets and B16 melanoma cells, for cytolytic T-cell targets. The YAC-1 cells were labelled in GKN (ucose/KCl/NaCl) with ^51 Cr (NEN-DuPont, 400-1200 Ci/g activity) for 60 min. The B16's were ^51 Cr labelled in complete α-MEM media for 60 min. Both targets were washed twice through whole fetal calf serum to remove damaged and dead cells and then suspended in complete RPMI at a final concentration of 1×10^5 cells/ml. The spleen cells (effector cells) were plated in round bottom 96 well trays starting at 1×10^7 cells/ml (100 μl/well), using a halving dilution that provided splenocyte concentrations of 10^6, 5×10^5, 2.5×10^5, 1.25×10^5, 6.25×10^4 and 3.125×10^4, all done in triplicate. The target cells were added at 1×10^4 cell/100 μl/well; this gave an effector:target cell ratio ranging from 100:1 to 3:1. Controls included spontaneous ^51 Cr release and 100% lysis (10% triton treatment). The trays were centrifuged at 50×g for 5 min. and incubated in a CO2 incubator at 37° C. for 16 hours. The trays were spun again at 50×g for 5 minutes and 100 μl removed from each well for counting. A Packard gamma counter (United Technologies) was used for counting. Each sample was counted for 1 min. giving a 5% counting efficiency. The following equation was used to determine percent lysis.
The effector:target ratios were then plotted against percent lysis and a simple line equation was determined for each treatment group. The slope of this line was then used to determine the total effector kill efficiency.
The ^51 Cr cytotoxicity assay was also run with the B16 melanoma cells as the target and the splenocytes from the same mice as above as the effector cells. The baseline mice (no tumor/no Sw) and the control mice (tumor/no SW) had very similar line shapes and slopes. There were significant differences (p=0.03) between the presence and absence of tumor (see Table in FIG. 68).

[2] = tested on: plaque forming cells (splenocytes); experiment: effect of swainsonine on humoral immunity (PFC assay); assay type: in vivo, mouse; settings: for PFC versus control in words: listed as Sw
Method: The plaque forming cell (PFC) assay was done according to the method developed by Jerne and Nordin (1963). The splenocytes were washed in serum-free RPMI-1640 and brought to a final concentration of 1×10^6 cell/100 μl. Sheep red blood cells (sRBC), from The Colorado Serum Company, were labelled with protein A from Staphylococcus aureus (Sigma). The sRBC's were washed 3 times with saline (0.85% NaCl), the packed cells were then incubated with 1 ml of protein A (0.5 mg/ml saline) and 10 ml of saline containing 0.1 μl of CrCl3 (35% solution) (Aldrich), for 20 minutes. The sRBC's were then washed 3 times with PBS and suspended in PBS to make a 30% solution. The sRBC's (50 μl) and splenocytes (100 μl) were combined with SeaPlaque agarose (FMC Corporation) and smeared on a 75 mm×50 mm microscope slide to form a lawn of target red blood cells with uniformly dispersed effector cells. Each sample was done in triplicate. The agarose was allowed to harden and the slides were placed in trays containing serum-free RPMI-1640. The trays were incubated at 37° C. in a CO2 incubator for 90 min. After incubation the slides were placed in slide holders containing normal saline for a wash step. The rabbit/anti-mouse antibody (DAKO Corporation) was diluted 1:400 with serum free RPMI-1640 and added to the slide trays. Following another 90 min. incubation at 37° C. in a CO2 incubator, the slides were again washed. Fresh frozen guinea pig complement (GIBCO) (2%) in serum-free RPMI-1640 was added to the slide trays and incubated for another 60 to 90 min. depending on the time necessary for plaque formation. The number of plaques were counted and the results reported as number of plaque forming cells per 1×10^6 splenocytes.
Mice were pretreated for 3 weeks with Sw (0.1 μg and 0.01 μg), and then received B16 cells. At 3 time points post tumor cell injection (day 0, 7 and 14), the mice were sacrificed and the spleens were removed. The cells were then used to determine the effect of Sw on humoral immunity. […] The presence of a day 7 tumor caused a return to baseline for all the groups. A significant difference (p=0.001) was seen on day 14 post tumor injection with the mice treated with 0.01 μg Sw.

O[C@H]1[C@H]2[C@H](O)CCCN2C[C@H]1O [Swainsonine, swainsonine]
CTL activity in words ([1]; 0.1 μg Sw for 3 weeks, listed as Sw): greater than that of the control and of the 0.01 μg treated mice; also recorded: significant increase in the CTL activity
increase in line slope above baseline ([1]; 0.1 μg Sw, day 7 tumor): 228%
increase in line slope over control mice with day 7 tumor ([1]; 0.1 μg Sw, day 7 tumor): 127%
increase in plaque forming cells ([2]; 0.01 μg Sw, before tumor, p=0.001): 89%
increase in PFC over mice without Sw with day 14 tumors ([2]; 0.01 μg Sw, day 14): 108%
increase in PFC over mice without tumors or treatment ([2]; 0.01 μg Sw, day 14): 144%
PFC versus control in words ([2]; 0.1 μg Sw without tumor (p=0.04)): not as significantly different from the control group; also recorded: significant changes in the formation of plaques prior to tumor exposure
PFC versus control in words ([2]; 0.1 μg Sw, day 14 (p=0.13)): not a significant difference between the controls and these treated mice; also recorded: even higher levels
